Test results taken from US20180104354A1, “CHIMERIC ANTIGEN RECEPTOR T CELL SWITCHES AND USES THEREOF” (The California Institute for Biomedical Research, priority 2013, published 2018).
Residue numbers refer to the chain shown, from its start. Where “and” joins values, the source holds several entries; their conditions need not be identical. Equal values may be shown once. Read-outs that look alike come from different tables or passages of the source. One block for each molecule: values may come before it.

Columns and labels:
KB (FR+) cells = experiment: In vitro cytotoxicity assay of anti-FITC-CAR-Ts with Folate-FITC, KB; type: cell-based
Method: (§1) Transduced human effector cells (˜50% transduction efficiency) were co-incubated with target cells at 10:1 (total T cells to target cells) ratio for 24 hr in the presence of varying concentrations of FITC “switches.” Redirected lysis of target cells was determined by CytoTox96 nonradioactive cytotoxicity assay kit (Promega, Madison, Wis.) according to manufacturer's protocol. The percentage of cytotoxicity was calculated by: % cytotoxicity=(Absorbance experimental average−Absorbance spontaneous average)/(absorbance max killing average−Absorbance spontaneous average)×100.
(§2) Human PBMCs were freshly isolated from whole blood of healthy donors by centrifugation with Ficoll-Paque PLUS (GE healthcare, Piscataway, N.J.) density gradient medium according to manufacturer's protocol. Cells were immediately activated with Dynabeads Human […] CD3/CD28 (Life Technologies, Carlsbad, Calif.) at 3:1 (bead to cell) ratio in AIM-V media (Life Technologies) containing 5% human AB serum (Valley Biomedical, Winchester, Va.). Lentiviral production was carried out using HEK293FT cell lines. Viral supernatant was used directly to transduce activated PBMCs via spinoculation in the presence of protamine sulfate and recombinant human IL2 (R&D systems, Minneapolis, Minn.). C4-2, KB, and A549 cell lines were maintained in RPMI-1640, Eagles's Minimum Essential Media, and F-12K medium supplemented with 10% fetal bovine serum, respectively (all from Life Technologies).
(§3) FIG. 6B-6C depicts the results from an in vitro cytotoxicity assay of anti-FITC-CAR-Ts co-incubated with KB (FR+) (see FIG. 6B) or A549 (FR−) (see FIG. 6C) target cells in the presence of varying concentrations Folate-FITC. Each concentration was carried out in triplicates. Results are shown as average percentage of cytotoxicity.

A549 (FR−) cells = experiment: In vitro cytotoxicity assay of anti-FITC-CAR-Ts with Folate-FITC, A549; type: cell-based; conditions: Homo sapiens; for cytotoxicity at 320 fM: 0.32 pM; for cytotoxicity at 0.0002 µM: 200 pM; for cytotoxicity at 0.001 µM: 1000 pM; for cytotoxicity at 0.005 µM: 5000 pM
Method: as §1, §2, §3

[1] = system: C4-2 (PSMA+) prostate cancer cells; experiment: 24 hr cytotoxicity assay of anti-FITC-CAR T cells with P-TriA-FITC, C4-2; type: cell-based; conditions: triplicates
Method: as §1, §2
FIG. 5B depicts a scheme for synthesis of the TriA-2-[3-(1,3-dicarboxypropyl)ureido] pentanedioic acid linker to be conjugated to FITC. FIG. 5C depicts the results from a 24 hr cytotoxicity assay of anti-FITC-CAR T cells targeting C4-2 (PSMA+) prostate cancer cells with serial dilutions of P-TriA-FITC. Each concentration was carried out in triplicate. Results are shown as average percentage of cytotoxicity.

[2] = Pharmacokinetic study of P-TriA-FITC in mice; type: in vivo
Excerpt: (§4) In brief, subcutaneous C4-2 (PSMA+) tumors were established in non-obese diabetic-severe combined immunodeficiency (NOD-SCID-γ−/−, NSG) mice.

C4-2 (PSMA+) tumors = experiment: In vivo efficacy, subcutaneous C4-2 tumors in NSG mice; conditions: s.c. C4-2 tumors
Excerpt: as §4

Her2 = Her2 (UniProt P04626); experiment: cell-based or functional assay
CD19 [3] = molecular target: T1, CD19 (human, UniProt P15391 20-556); experiment: cell-based or functional assay
T1 sequence (looked up): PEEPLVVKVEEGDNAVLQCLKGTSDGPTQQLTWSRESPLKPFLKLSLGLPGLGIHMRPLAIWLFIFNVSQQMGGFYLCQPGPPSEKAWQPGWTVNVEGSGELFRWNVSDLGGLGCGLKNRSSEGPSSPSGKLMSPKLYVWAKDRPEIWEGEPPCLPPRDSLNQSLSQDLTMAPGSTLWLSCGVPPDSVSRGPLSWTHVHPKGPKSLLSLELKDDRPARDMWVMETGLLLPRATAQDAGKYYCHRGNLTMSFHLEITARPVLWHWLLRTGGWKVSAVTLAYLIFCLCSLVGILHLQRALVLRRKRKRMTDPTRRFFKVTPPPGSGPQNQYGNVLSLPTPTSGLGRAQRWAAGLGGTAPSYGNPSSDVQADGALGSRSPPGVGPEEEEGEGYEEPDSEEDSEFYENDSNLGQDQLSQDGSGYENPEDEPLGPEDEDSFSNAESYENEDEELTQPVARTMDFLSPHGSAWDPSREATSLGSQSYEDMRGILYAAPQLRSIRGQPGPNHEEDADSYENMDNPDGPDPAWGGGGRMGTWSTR

CD19 [4] = molecular target: T1, CD19; experiment: cell-based or functional assay; remark: listed apart in the source

Molecule: Nc1nc2ncc(CNc3ccc(C(=O)N[C@H](CCC(=O)NCCNC(=S)Nc4ccc5c(c4)C(=O)OC54c5ccc(O)cc5Oc5cc(O)ccc54)C(=O)O)cc3)nc2c(=O)[nH]1 [FITC-folate switch]
cytotoxicity at 1.6 pM (KB (FR+) cells): 16.5% | cytotoxicity at 8 pM (KB (FR+) cells): 37.1% | cytotoxicity at 40 pM (KB (FR+) cells): 68.1% | cytotoxicity at 0.0002 µM (KB (FR+) cells): 74.6% | cytotoxicity at 0.001 µM (KB (FR+) cells): 77.1% | cytotoxicity at 0.005 µM (KB (FR+) cells): 77% | cytotoxicity at 320 fM (KB (FR+) cells): 8.3% | cytotoxicity at 320 fM (KB (FR+) cells; T-cell, KB (FR+), non-transduced T cells, 0.32 pM): 2.27% | cytotoxicity at 1.6 pM (KB (FR+) cells; T-cell, KB (FR+), non-transduced T cells, 1.6 pM): 3.01% | cytotoxicity at 8 pM (KB (FR+) cells; T-cell, KB (FR+), non-transduced T cells, 8 pM): 2.19% | cytotoxicity at 40 pM (KB (FR+) cells; T-cell, KB (FR+), non-transduced T cells, 40 pM): 2.88% | cytotoxicity at 0.0002 µM (KB (FR+) cells; T-cell, KB (FR+), non-transduced T cells, 200 pM): 2.32% | cytotoxicity at 0.001 µM (KB (FR+) cells; T-cell, KB (FR+), non-transduced T cells, 1000 pM): 2.38% | cytotoxicity at 0.005 µM (KB (FR+) cells; T-cell, KB (FR+), non-transduced T cells, 5000 pM): 2.04% | cytotoxicity at 320 fM (A549 (FR−) cells; 4M5.3 CAR-T): 0.957% | cytotoxicity at 8 pM (A549 (FR−) cells; 4M5.3 CAR-T): 0.765% | cytotoxicity at 40 pM (A549 (FR−) cells; 4M5.3 CAR-T): 2.55% | cytotoxicity at 0.0002 µM (A549 (FR−) cells; 4M5.3 CAR-T): 5.78% | cytotoxicity at 0.001 µM (A549 (FR−) cells; 4M5.3 CAR-T): 5.87% | cytotoxicity at 0.005 µM (A549 (FR−) cells; 4M5.3 CAR-T): 3.15% | cytotoxicity at 1.6 pM (A549 (FR−) cells; 4M5.3 CAR-T): 0.527% | cytotoxicity at 320 fM (A549 (FR−) cells; non-transduced T cells): -0.986% | cytotoxicity at 8 pM (A549 (FR−) cells; non-transduced T cells): -1.05% | cytotoxicity at 40 pM (A549 (FR−) cells; non-transduced T cells): -1.52% | cytotoxicity at 0.0002 µM (A549 (FR−) cells; non-transduced T cells): -0.96% | cytotoxicity at 0.001 µM (A549 (FR−) cells; non-transduced T cells): -1.16% | cytotoxicity at 0.005 µM (A549 (FR−) cells; non-transduced T cells): -1.61% | cytotoxicity at 1.6 pM (A549 (FR−) cells; non-transduced T cells): -1.02%

intravenous (IV) half-life t1/2 [2]: 1.08 ± 0.14 h
Molecule: O=C(O)CCC(NC(=O)NC(CCCCn1cc(CCCCCCNC(=O)c2ccc(C(=O)NCCOCCOCCOCCNC(=O)c3ccc4c(c3)C(=O)OC43c4ccc(O)cc4Oc4cc(O)ccc43)cc2)nn1)C(=O)O)C(=O)O (centres unmarked) [P-TriA-FITC, 2-[3-(1,3-dicarboxypropyl)ureido]pentanedioic acid-TriA-FITC]
percentage of cytotoxicity ([1]; 4M5.3 anti-FITC CAR T cells, 0.000512 pM): 3.992% and 3.358% and 4.689% | percentage of cytotoxicity ([1]; 4M5.3 anti-FITC CAR T cells, 0.012800 pM): 3.555% and 1.304% and 1.206% | percentage of cytotoxicity ([1]; 4M5.3 anti-FITC CAR T cells, 0.320000 pM): 2.224% and 2.545% and 2.965% | percentage of cytotoxicity ([1]; 4M5.3 anti-FITC CAR T cells, 8.000000 pM): 9.173% and 10.76% and 7.583% | percentage of cytotoxicity ([1]; 4M5.3 anti-FITC CAR T cells, 40.000000 pM): 52.56% and 55.81% and 53.56% | percentage of cytotoxicity ([1]; 4M5.3 anti-FITC CAR T cells, 200.000000 pM): 77.22% and 76.53% and 73.92% | percentage of cytotoxicity ([1]; 4M5.3 anti-FITC CAR T cells, 1000.000000 pM): 82.62% and 79.94% and 78.91% | percentage of cytotoxicity ([1]; 4M5.3 anti-FITC CAR T cells, 5000.000000 pM): 82.04% and 77.45% and 78.01% | percentage of cytotoxicity ([1]; Non-transduced T cells, 0.000512 pM): 1.418% and 0.8462% and 1.052% | percentage of cytotoxicity ([1]; Non-transduced T cells, 0.012800 pM): 1.632% and 0.1496% and 0.8552% | percentage of cytotoxicity ([1]; Non-transduced T cells, 0.320000 pM): 0.1943% and 0.5515% and −0.1898% | percentage of cytotoxicity ([1]; Non-transduced T cells, 8.000000 pM): 1.409% and 0.4622% and 0.5515% | percentage of cytotoxicity ([1]; Non-transduced T cells, 40.000000 pM): −1.11% and −0.5828% and 1.177% | percentage of cytotoxicity ([1]; Non-transduced T cells, 200.000000 pM): −0.5292% and 0.5069% and −0.422% | percentage of cytotoxicity ([1]; Non-transduced T cells, 1000.000000 pM): 0.02456% and 0.09601% and 0.04242% | percentage of cytotoxicity ([1]; Non-transduced T cells, 5000.000000 pM): 1.052% and −0.9132% and 0.1139% | Tumor response (C4-2 (PSMA+) tumors; FITC-CART cells (FITC-E2) i.p. plus switch 1 mg/kg i.v. daily for 10 days): tumors had regressed | Tumor response (C4-2 (PSMA+) tumors; switch only, no CART cells): tumor growth continued

Molecule: FITC-anti-Her2 antibody CAR-T switch with FITC conjugated at LC S202pAcF (Fab based on Trastuzumab)
% cytotoxicity; 0.01 pM switch; MDA MB231 cells (Her2): 0% | % cytotoxicity; 0.1 pM switch; MDA MB231 cells (Her2): 0% | % cytotoxicity; 100 pM switch; MDA MB231 cells (Her2): 48% | EC50 of cytotoxicity; SKBR3 cells (Her2): 8000 to 20000 pM

B1: anti-CD19 Fab-FITC switch LG68X (pAzF at glycine 68 of the light chain) (Fab, V domains shown)
VH: EVKLQESGPGLVAPSQSLSVTCTVSGVSLPDYGVSWIRQPPRKGLEWLGVIWGSETTYYNSALKSRLTIIKDNSKSQVFLKMNSLQTDDTAIYYCAKHYYYGGSYAMDYWGQGTSVTVSS
VL: DIQMTQTTSSLSASLGDRVTISCRASQDISKYLNWYQQKPDGTVKLLIYHTSRLHSGVPSRFSGSGSXTDYSLTISNLEQEDIATYFCQQGNTLPYTFGGGTKLEIKR
modifications: p-azidophenylalanine (pAzF) at LC G68, clicked to cyclooctyne-FITC linker
Cytotoxicity EC50; FITC-E2 CAR-T; NALM6 cells (CD19 [3]): 3.53 pM | % cytotoxicity; 0.01 pM switch; FITC-E2 CAR-T; NALM6 cells (CD19 [4]): 0% | % cytotoxicity; 0.1 pM switch; FITC-E2 CAR-T; NALM6 cells (CD19 [4]): 3.85% | % cytotoxicity; 1 pM switch; FITC-E2 CAR-T; NALM6 cells (CD19 [4]): 17.8% | % cytotoxicity; 10 pM switch; FITC-E2 CAR-T; NALM6 cells (CD19 [4]): 56.7% | % cytotoxicity; 100 pM switch; FITC-E2 CAR-T; NALM6 cells (CD19 [4]): 78.1% | % cytotoxicity; 1000 pM switch; FITC-E2 CAR-T; NALM6 cells (CD19 [4]): 74.5%

B2: anti-CD19 Fab-FITC switch HS74X (pAzF at serine 74 of the heavy chain) (Fab, V domains shown)
VH: B1 VH with S74X
VL: B1 VL with X68G
modifications: pAzF at HC S74, clicked to cyclooctyne-FITC linker
Cytotoxicity EC50; FITC-E2 CAR-T; NALM6 cells (CD19 [3]): 0.97 pM | % cytotoxicity; 0.01 pM switch; FITC-E2 CAR-T; NALM6 cells (CD19 [4]): 0% | % cytotoxicity; 0.1 pM switch; FITC-E2 CAR-T; NALM6 cells (CD19 [4]): 21.4% | % cytotoxicity; 1 pM switch; FITC-E2 CAR-T; NALM6 cells (CD19 [4]): 47.6%
